How the values were obtained:
Assay type in all cases: functional
Conditions in all cases: read-out: DIZ
[1] = tested on: Staphylococcus aureus; assay: Antibacterial activity against Staphylococcus aureus at 0.13 mol/L after 12 to 24 hrs by paper disc method
[2] = tested on: Escherichia coli; assay: Antibacterial activity against Escherichia coli at 0.25 mol/L after 12 to 24 hrs by paper disc method
[3] = tested on: Aspergillus niger; assay: Antifungal activity against Aspergillus niger at 0.25 mol/L after 2 to 4 days by paper disc method
[4] = tested on: Penicillium citrinum; assay: Antifungal activity against Penicillium citrinum at 0.06 mol/L after 2 to 4 days by paper disc method
[5] = tested on: Penicillium citrinum; assay: Antifungal activity against Penicillium citrinum at 0.03 mol/L after 2 to 4 days by paper disc method
[6] = tested on: Escherichia coli; assay: Antibacterial activity against Escherichia coli at 0.06 mol/L after 12 to 24 hrs by paper disc method
[7] = tested on: Escherichia coli; assay: Antibacterial activity against Escherichia coli at 0.13 mol/L after 12 to 24 hrs by paper disc method
[8] = tested on: Staphylococcus aureus; assay: Antibacterial activity against Staphylococcus aureus at 0.06 mol/L after 12 to 24 hrs by paper disc method
[9] = tested on: Escherichia coli; assay: Antibacterial activity against Escherichia coli at 0.03 mol/L after 12 to 24 hrs by paper disc method
[10] = tested on: Penicillium citrinum; assay: Antifungal activity against Penicillium citrinum at 0.25 mol/L after 2 to 4 days by paper disc method
[11] = tested on: Penicillium citrinum; assay: Antifungal activity against Penicillium citrinum at 0.13 mol/L after 2 to 4 days by paper disc method
[12] = tested on: Aspergillus niger; assay: Antifungal activity against Aspergillus niger at 0.13 mol/L after 2 to 4 days by paper disc method
[13] = tested on: Staphylococcus aureus; assay: Antibacterial activity against Staphylococcus aureus at 0.03 mol/L after 12 to 24 hrs by paper disc method
[14] = tested on: Aspergillus niger; assay: Antifungal activity against Aspergillus niger at 0.03 mol/L after 2 to 4 days by paper disc method
[15] = tested on: Aspergillus niger; assay: Antifungal activity against Aspergillus niger at 0.06 mol/L after 2 to 4 days by paper disc method
[16] = tested on: Staphylococcus aureus; assay: Antibacterial activity against Staphylococcus aureus at 0.25 mol/L after 12 to 24 hrs by paper disc method

SMILES | zone of inhibition at 130000 µM [1] | zone of inhibition at 250000 µM [2] | zone of inhibition at 250000 µM [3] | zone of inhibition at 60000 µM [4] | zone of inhibition at 30000 µM [5] | zone of inhibition at 60000 µM [6] | zone of inhibition at 130000 µM [7] | zone of inhibition at 60000 µM [8] | zone of inhibition at 30000 µM [9] | zone of inhibition at 250000 µM [10] | zone of inhibition at 130000 µM [11] | zone of inhibition at 130000 µM [12] | zone of inhibition at 30000 µM [13] | zone of inhibition at 30000 µM [14] | zone of inhibition at 60000 µM [15] | zone of inhibition at 250000 µM [16]
COc1ccc(/C=C/C=N/CC(=O)O)cc1 | 8 mm | 13.5 mm | 23.3 mm | 8.7 mm | 11.5 mm | 8 mm | 8 mm | 9 mm | 8 mm | 21 mm | 11.7 mm | 17.7 mm | 8 mm | 11.3 mm | 8 mm | 8.7 mm
O=C(O)C/N=C/C=C/c1ccccc1 | 8 mm | 9.3 mm | 11 mm | 11 mm | 8 mm | 8 mm | 8 mm | 8 mm | 8 mm | 10.3 mm | 10.7 mm | 8.7 mm | 8 mm | 8 mm | 9 mm | 11.7 mm
O=C(O)CC[C@H](/N=C/C=C/c1ccc(Cl)cc1)C(=O)O | 20 mm | 18.3 mm | 21 mm | 18.7 mm | 17 mm | 12 mm | 17.3 mm | 10.5 mm | 15.7 mm | 35 mm | 23 mm | 23.3 mm | 8.3 mm | 17.7 mm | 17.3 mm | 31 mm
O=C(O)CC[C@H](/N=C/C=C/c1ccccc1)C(=O)O | 8.2 mm | 26 mm | 25 mm | 14 mm | 9.7 mm | 8 mm | 15 mm | 8 mm | 8 mm | 38 mm | 25.3 mm | 22.7 mm | 8 mm | 8 mm | 13.8 mm | 19.7 mm
COc1ccc(/C=C/C=N/[C@@H](CCC(=O)O)C(=O)O)cc1 | 8 mm | 18.7 mm | 23.2 mm | 13.3 mm | 11.5 mm | 11.3 mm | 11.7 mm | 8.3 mm | 8 mm | 20.7 mm | 25.3 mm | 20.3 mm | 8 mm | 8.8 mm | 13.2 mm | 8.3 mm
O=C/C=C/c1ccccc1 [CINNAMALDEHYDE] | 9 mm | 29.5 mm | 26.7 mm | 15 mm | 12.2 mm | 11 mm | 11 mm | 8 mm | 8 mm | 29.7 mm | 28.7 mm | 22.3 mm | 8 mm | 8 mm | 16 mm | 10.5 mm
